In US10081632B2, “Substituted tetrahydropyrido[3′,2′:4,5]pyrrolo[1,2-α]pyrazine-2-carboxamides as RSK inhibitors” (Phoenix Molecular Designs, priority 2016, dated 2018):
Structures can show the parent of a compound that is named as a salt.

Tests used:
[1] = Solubility assessment, 20 mg/ml solution; type: physicochemical
Experimental: Solubility is an important property for therapeutic drug candidates. Poor solubility can lead to low bioavailability resulting in suboptimal drug delivery. It can also prevent the evaluation of test agents in animals because the concentration(s) needed to achieve the desired effect cannot be achieved to poor solubility. For solubility assessments, small molecules targeting RSK were compared. For these assessments, 100 mM solutions of the compounds dissolved in DMSO were diluted in DMEM growth media (Life Technologies) supplemented with fetal bovine serum (FBS, Life Technologies) and 100 units/ml penicillin and 100 units/ml streptomycin (Life Technologies) to make 20 mg/ml solutions. Once diluted, the solutions were vortexed and examined for the formation of precipitates. […] For Compound 26, a 100 mM solution of the compound dissolved in DMSO was diluted in phosphate buffered saline (Life Technologies) to make a 20 mg/ml solution. The stock of […] was chosen because this is the upper end of what would be required to dose mice for a range of studies including MTD, PK, PD and efficacy. The pH of this solution was determined to be 2, as previously described. […] At high concentrations some RSK inhibitors were highly soluble while others were not. Compound 0 is (R)—N-(1-benzyl-1H-pyrazol-4-yl)-9-methyl-6-oxo-6,7,8,9-tetrahydropyrido[3′,2′:4,5]pyrrolo[1,2-a]pyrazine-2-carboxamide. Compound 0 was not soluble, whereas Compounds 18, 20, 21, 25 and 26 were soluble under the same conditions (Table 5).

4T1 cells [2] = assay: Soft agar growth inhibition assay; type: cell-based; conditions: Mus musculus; 4T1 (TNBC), 14-22 days; read-out: IC50 Values - Soft Agar (14-22 Days)
Experimental: Two agar (Alfa Aesar) solutions (0.8% w/v and 0.4% w/v) were prepared in ultrapure water. The 0.8% agar solution was mixed in equal volumes with 2× media previously prepared from powder (Life Technologies) following the manufacturer's instructions and filter sterilized. The 0.8% agar and media solution was added to 24 well plates (Mandel Scientific) at 500 μl per well. The plates were placed in a humidified incubator at 37° C. with 5% CO2. Next, the 0.4% agar solution was mixed in equal volumes with 2× media. Breast cancer cell lines were added to this solution to achieve a final concentration of 2×10^4 cells per well and […] was added to each well on top of the bottom agar and media layer. […] The plates were returned to the incubator for 10-32 days, with a re-dosing of compounds or DMSO every 7 days. After 10-32 days, colonies were counted in 3 different fields of view for each well.
Representative compounds described herein were tested in the soft agar growth inhibition assay against the 4T1 breast cancer cell line.

[3] = test system: phosphorylated Y-box binding protein-1 (YB-1) at serine 102 (P-YB-1S102); assay: Immunoblotting of cell signalling, loss of P-YB-1 in MDA-MB-231 cells; conditions: Homo sapiens, MDA-MB-231, read-out: IC50 values for P-YB-1
Experimental: Following desired experimental conditions, breast cancer cell lines grown and treated in 6 well plates or 100 mm culture dishes (Grenier Bio-One) were placed on ice and the supernatant from each well was removed and the cells were washed in cold PBS. Following removal of PBS, cells were exposed to radioimmunoprecipitation assay (RIPA) buffer (50 mM Tris-HCl (pH 8), 150 mM NaCl, 1% NP-40, 0.5% sodium deoxycholate, 0.1% SDS; Fisher Scientific) supplemented with 1% phosphatase inhibitor (Fisher Scientific) and 1% protease inhibitor (Fisher Scientific) for 10 minutes. Samples were transferred to eppendorf tubes, vortexed and then centrifuged at 14 000 rpm for 10 minutes. Supernatants were collected as whole cell lysates.
To begin, the protein content of the lysates was measured using the Bicinchoninic Acid (BCA) Protein Assay Kit (Pierce), which included a protein standard curve generated with bovine serum albumin. Appropriate volumes of samples and loading buffer (50 mM Tris-HCl (pH 6.8), 2% SDS, 10% glycerol, 1% j-mercaptoethanol, 12.5 mM EDTA, 0.02% bromophenol blue) were mixed, ensuring that equal amounts of protein were loaded. For the majority of experiments in this study, 30 μg of protein per well was loaded. Samples were then resolved on SDS-PAGE (polyacrylamide gel electrophoresis) using various percentages of acrylamide gels (8%-12%), depending on the proteins of interest. SDS-PAGE was run in SDS running buffer (25 mM Tris, 192 mM glycine, 0.1% SDS) and then transferred to nitrocellulose membranes (Bio-Rad) in transfer buffer (48 mM Tris, 39 mM glycine, 20% (v/v) methanol) at 100 volts for 90 minutes at room temperature. Immunoblots were then blocked in 5% skim milk in tris-buffered saline with 0.1% Tween-20 (TBS-T; 50 mM Tris-HCl, pH 7.5, 150 mM NaCl, 0.1% (v/v) Tween-20 (Fisher Scientific)) for 1 to 2 hours. Immunoblots were then incubated with selected primary antibodies diluted in TBS-T with 0.1% gelatin (Bio-Rad) and 0.05% sodium azide (Alfa Aesar) overnight. Following washes with TBT-T 4 times for 8 to 10 minutes, immunoblots were incubated with appropriate secondary antibodies conjugated to horseradish peroxidise (Cell Signalling Technology) diluted in TBS-T plus 5% skim milk at a ratio of 1:5000 for 2 hours at room temperature. After an additional round of washes in TBS-T, immunoblots were exposed to combined enhanced chemiluminescence (ECL) reagents (Fisher Scientific) for 1 minute and developed using ChemiDoc MP Imaging System (Bio-Rad). For certain immunoblots, bands of proteins of interest were scanned and band intensity ratios were determined by densitometric analysis (ImageJ). […] Total YB-1 was used as a loading control (1:5000 Abcam). […] To assess whether cells are actively undergoing cell death, the activity of poly ADP ribose polymerase (PARP) (1:1000 CST) was also measured using the immunoblotting method.

T47D cells [4] = assay: Monolayer growth inhibition, Alamar blue assay; type: cell-based, Human; conditions: Homo sapiens; T47D (ER/PR), 5 days, single dose on day 1
Source text: (§1) In all instances a single dose was given on day 1 of the experiment.

SUM149-PTXR cells [5] = assay: Monolayer growth inhibition, Alamar blue assay; type: cell-based, Human; conditions: Homo sapiens; SUM149-PTXR (TNBC, BRCA Mutant), 5 days, single dose on day 1
Source text: as §1

MDA-MB-231 cells [6] = assay: Monolayer growth inhibition, crystal violet assay; type: cell-based; conditions: Homo sapiens; MDA-MB-231 (TNBC), 5 days, single dose on day 1
Source text: as §1

MDA-MB-435 cells [7] = assay: Monolayer growth inhibition, crystal violet assay; type: cell-based; conditions: Homo sapiens; MDA-MB-435 (Melanoma), 5 days, single dose on day 1
Source text: as §1

HCC1143 cells [8] = assay: Monolayer growth inhibition, crystal violet assay; type: cell-based; conditions: Homo sapiens; HCC1143 (TNBC), 5 days, single dose on day 1
Source text: as §1

SUM149 cells [9] = assay: Monolayer growth inhibition, crystal violet assay; type: cell-based; conditions: Homo sapiens; SUM149 (TNBC, BRCA Mutant), 5 days, single dose on day 1
Source text: as §1

4T1 cells [10] = assay: Monolayer growth inhibition, crystal violet assay; type: cell-based; conditions: Mus musculus; 4T1 (TNBC), 5 days, single dose on day 1
Source text: as §1

SUM149-PTXR cells [11] = assay: Monolayer growth inhibition, crystal violet assay; type: cell-based; conditions: Homo sapiens; SUM149-PTXR (TNBC, BRCA Mutant), 5 days, single dose on day 1
Source text: as §1

PC3 cells [12] = assay: Monolayer growth inhibition, crystal violet assay; type: cell-based; conditions: Homo sapiens, PC-3; PC3 (Prostate), 5 days, single dose on day 1
Source text: as §1

All cell lines [13] = assay: Monolayer growth inhibition, crystal violet assay, range over all cell lines; type: cell-based; conditions: 120 h; range of IC50 over all cell lines of the table; read-out: IC50 Values - Crystal Violet (5 Days), Range, All
Source text: (§2) In all instances a single dose was given on day 1 of the experiment. […] Complete (100%) growth suppression was achievable with several of the compounds in multiple different cell lines.

All cell lines [14] = assay: Monolayer growth inhibition, Alamar blue assay, range over all cell lines; type: cell-based; conditions: 120 h; range of IC50 over all cell lines of the table; read-out: IC50 Values - Alamar Blue (5 Days), Range, All
Source text: as §1

MDA-MB-468 cells [15] = assay: Soft agar growth inhibition assay; type: cell-based, Human; conditions: Homo sapiens; MDA-MB-468 (TNBC), 14-22 days
MDA-MB-231 cells [16] = assay: Soft agar growth inhibition assay; type: cell-based; conditions: Homo sapiens; MDA-MB-231 (TNBC), 14-22 days; read-out: IC50 Values - Soft Agar (14-22 Days)
MDA-MB-231 cells [17] = assay: Monolayer growth inhibition, Alamar blue assay; type: cell-based; conditions: Homo sapiens; MDA-MB-231 (TNBC), 5 days, single dose on day 1
Source text: as §1

MDA-MB-435 cells [18] = assay: Monolayer growth inhibition, Alamar blue assay; type: cell-based; conditions: Homo sapiens; MDA-MB-435 (Melanoma), 5 days, single dose on day 1
Source text: as §1

HCC1143 cells [19] = assay: Monolayer growth inhibition, Alamar blue assay; type: cell-based; conditions: Homo sapiens; HCC1143 (TNBC), 5 days, single dose on day 1
Source text: as §1

SUM149 cells [20] = assay: Monolayer growth inhibition, Alamar blue assay; type: cell-based; conditions: Homo sapiens; SUM149 (TNBC, BRCA Mutant), 5 days, single dose on day 1
Source text: as §1

4T1 cells [21] = assay: Monolayer growth inhibition, Alamar blue assay; type: cell-based; conditions: Mus musculus; 4T1 (TNBC), 5 days, single dose on day 1
Source text: as §1

JIMT-1 cells [22] = assay: Monolayer growth inhibition, Alamar blue assay; type: cell-based; conditions: Homo sapiens; JIMT-1 (HER2), 5 days, single dose on day 1
Source text: as §1

MDA-MB-468 cells [23] = assay: Monolayer growth inhibition, Alamar blue assay; type: cell-based; conditions: Homo sapiens; MDA-MB-468 (TNBC), 5 days, single dose on day 1
Source text: as §1

HCC1937 cells [24] = assay: Monolayer growth inhibition, Alamar blue assay; type: cell-based; conditions: Homo sapiens; HCC1937 (TNBC, BRCA Mutant), 5 days, single dose on day 1
Source text: as §1

PC3 cells [25] = assay: Monolayer growth inhibition, Alamar blue assay; type: cell-based; conditions: Homo sapiens, PC-3; PC3 (Prostate), 5 days, single dose on day 1
Source text: as §1

T47D cells [26] = assay: Monolayer growth inhibition, crystal violet assay; type: cell-based; conditions: Homo sapiens; T47D (ER/PR), 5 days, single dose on day 1
Source text: as §2

JIMT-1 cells [27] = assay: Monolayer growth inhibition, crystal violet assay; type: cell-based; conditions: Homo sapiens; JIMT-1 (HER2), 5 days, single dose on day 1
Source text: as §2

MDA-MB-468 cells [28] = assay: Monolayer growth inhibition, crystal violet assay; type: cell-based; conditions: Homo sapiens; MDA-MB-468 (TNBC), 5 days, single dose on day 1
Source text: as §2

HCC1937 cells [29] = assay: Monolayer growth inhibition, crystal violet assay; type: cell-based; conditions: Homo sapiens; HCC1937 (TNBC, BRCA Mutant), 5 days, single dose on day 1
Source text: as §2

Structure (SMILES) | IC50 (4T1 cells [2]) [µM] | IC50 [3] [µM] | IC50 (SUM149-PTXR cells [5]) [µM] | IC50 (MDA-MB-231 cells [6]) [µM] | IC50 (MDA-MB-435 cells [7]) [µM] | IC50 (HCC1143 cells [8]) [µM] | IC50 (SUM149 cells [9]) [µM] | IC50 (4T1 cells [10]) [µM] | IC50 (SUM149-PTXR cells [11]) [µM] | IC50 (PC3 cells [12]) [µM] | IC50 (All cell lines [13]) [µM] | IC50 (All cell lines [14]) [µM] | IC50 (MDA-MB-468 cells [15]) [µM] | IC50 (MDA-MB-231 cells [16]) [µM] | IC50 (MDA-MB-231 cells [17]) [µM] | IC50 (MDA-MB-435 cells [18]) [µM] | IC50 (HCC1143 cells [19]) [µM] | IC50 (SUM149 cells [20]) [µM] | IC50 (4T1 cells [21]) [µM] | IC50 (JIMT-1 cells [22]) [µM] | further results
C[C@@H]1CNC(=O)c2c(Cl)c3ccc(C(=O)Nc4cnn(Cc5ccccc5)c4)nc3n21 [Compound 24, (R)—N-(1-benzyl-1H-pyrazol-4-yl)-5-chloro-9-methyl-6-oxo-6,7,8,9-tetrahydropyrido[3′,2′:4,5]pyrrolo[1,2-a]pyrazine-2-carboxamide] | 0.7 ± 0.3 | 0.016 | 3.4 ± 2.1 | 9.1 ± 1.3 | 5 ± 3.6 | 5.8 ± 2.6 | 0.9 ± 0.3 | 0.3 ± 0.1 | 4.5 ± 1.4 | 6.5 ± 2.8 | 0.3 to 9.1 | 0.5 to 12.3 | 2.5 ± 2 | 0.4 ± 0.2 | 9.8 ± 3.1 | 5.6 ± 0.1 | 4.4 ± 1.9 | 1.1 ± 0.9 | 0.5 ± 0.3 | 12.3 ± 5.9 | Solubility, 20 mg/ml Solution ([1]; 100 mM in DMSO diluted in DMEM growth media to 20 mg/ml): Precipitate; IC50 (T47D cells [4]): 4.5 ± 4.1 µM; IC50 (MDA-MB-468 cells [23]): 4.5 ± 2.3 µM; IC50 (HCC1937 cells [24]): 9.2 ± 3.2 µM; IC50 (PC3 cells [25]): 12 ± 4.5 µM; IC50 (T47D cells [26]): 2.7 ± 2.1 µM; IC50 (JIMT-1 cells [27]): 7.5 ± 2.2 µM; IC50 (MDA-MB-468 cells [28]): 3.3 ± 1.3 µM; IC50 (HCC1937 cells [29]): 5.8 ± 0.4 µM
C[C@@H]1CNC(=O)c2cc3ccc(C(=O)Nc4cnn(Cc5ccc(CN)cc5)c4)nc3n21 [Compound 26, (R)—N-(1-(4-(aminomethyl)benzyl)-1H-pyrazol-4-yl)-9-methyl-6-oxo-6,7,8,9-tetrahydropyrido[3′,2′:4,5]pyrrolo[1,2-a]pyrazine-2-carboxamide hydrochloride salt] | 5.3 ± 1.3 | 0.047 | 8.8 ± 2.5 | 3.7 ± 1.8 | 1.6 ± 0.3 | 7.3 ± 2.7 | 6.5 ± 4.4 | 4.9 ± 1.1 | 6.5 ± 2.1 | 1.5 ± 0.5 | 1.5 to 12.3 | 1.9 to 15.5 | 2 ± 0.2 | 0.2 ± 0.1 | 7.4 ± 1.7 | 3.9 ± 1.3 | 9.6 ± 6.1 | 9.8 ± 5.7 | 6.2 ± 2.5 | 15.5 ± 6.6 | Solubility after addition of 4M NaOH ([1]; 20 mg/ml in PBS, pH equal to 9): remained in solution; Solubility, 20 mg/ml Solution ([1]; 100 mM in DMSO diluted in PBS to 20 mg/ml, hydrochloride salt): Soluble; pH of 20 mg/ml solution ([1]; DMSO stock diluted in PBS, pH test strips, hydrochloride salt): 2-9; IC50 (MDA-MB-468 cells [23]): 2.5 ± 0.7 µM; IC50 (HCC1937 cells [24]): 5.6 ± 0.4 µM; IC50 (PC3 cells [25]): 1.9 ± 0.8 µM; IC50 (JIMT-1 cells [27]): 12.3 ± 3.2 µM; IC50 (MDA-MB-468 cells [28]): 1.7 ± 0.2 µM; IC50 (HCC1937 cells [29]): 6.6 ± 1.6 µM
